Assay results published in patent publication US20250084078A1, “FUSED RING-SUBSTITUTED SIX-MEMBERED HETEROCYCLIC COMPOUND, AND PREPARATION METHOD THEREFOR AND USE THEREOF” (GENFLEFT THERAPEUTICS (SHANGHAI) INC., priority 2022, published 2025).

Key:
HPK1 [1] = molecular target: HPK1 (Homo sapiens, UniProt Q92918); assay: SLP76 phosphorylation assay (intracellular HPK1 inhibitory activity, p-SLP76 S376 ELISA in Jurkat cells); conditions: p-SLP76 IC50, Jurkat, Clone E6-1 cells; 1 h compound pre-incubation; anti-CD3 beads stimulation 20 min; Phospho-SLP-76 (Ser376) ELISA
Target sequence in this assay (Q92918 whole entry): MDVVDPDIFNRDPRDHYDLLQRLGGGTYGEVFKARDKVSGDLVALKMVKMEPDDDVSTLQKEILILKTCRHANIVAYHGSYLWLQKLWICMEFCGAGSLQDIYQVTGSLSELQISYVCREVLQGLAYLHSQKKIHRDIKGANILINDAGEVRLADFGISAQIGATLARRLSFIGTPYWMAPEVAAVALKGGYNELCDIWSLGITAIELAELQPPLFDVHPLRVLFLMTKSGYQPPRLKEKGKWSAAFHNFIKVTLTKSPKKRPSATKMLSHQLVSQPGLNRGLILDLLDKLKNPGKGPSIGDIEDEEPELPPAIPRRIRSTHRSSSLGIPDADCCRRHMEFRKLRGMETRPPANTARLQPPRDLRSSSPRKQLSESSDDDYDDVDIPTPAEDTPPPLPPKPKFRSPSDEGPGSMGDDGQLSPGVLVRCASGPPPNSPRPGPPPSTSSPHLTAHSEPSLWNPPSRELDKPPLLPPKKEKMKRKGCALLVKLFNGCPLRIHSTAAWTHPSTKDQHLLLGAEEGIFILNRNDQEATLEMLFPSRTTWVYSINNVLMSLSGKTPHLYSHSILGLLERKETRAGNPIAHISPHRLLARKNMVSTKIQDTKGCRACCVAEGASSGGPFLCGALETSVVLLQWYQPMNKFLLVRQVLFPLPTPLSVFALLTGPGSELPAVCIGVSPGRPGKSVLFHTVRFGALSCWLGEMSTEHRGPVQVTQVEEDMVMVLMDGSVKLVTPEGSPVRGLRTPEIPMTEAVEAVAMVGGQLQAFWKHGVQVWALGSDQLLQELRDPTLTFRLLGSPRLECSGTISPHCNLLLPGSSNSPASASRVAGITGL

HPK1 [2] = molecular target: T1, HPK1 (Homo sapiens, UniProt Q92918); assay: HPK1 kinase activity assay (ADP-Glo); conditions: HPK1 Kinase activity IC50, ADP-Glo; 1 nM HPK1, 10 μM ATP, 0.1 μg/μL MBP
T1 sequence (Q92918 1-346): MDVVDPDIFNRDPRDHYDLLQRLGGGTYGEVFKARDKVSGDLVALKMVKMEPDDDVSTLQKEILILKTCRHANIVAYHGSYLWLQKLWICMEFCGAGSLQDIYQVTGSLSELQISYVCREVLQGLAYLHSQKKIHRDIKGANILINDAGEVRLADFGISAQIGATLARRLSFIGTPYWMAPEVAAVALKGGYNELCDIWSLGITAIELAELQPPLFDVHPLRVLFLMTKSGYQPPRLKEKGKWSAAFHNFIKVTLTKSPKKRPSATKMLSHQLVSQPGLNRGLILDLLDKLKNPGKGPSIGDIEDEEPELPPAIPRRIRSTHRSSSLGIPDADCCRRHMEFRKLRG
Description: Preparation of buffer: Ix reaction buffer (40 mM Tris-HCl, 20 mM MgCl2, 0.01% Brij35, 50 μM DTT, 0.1 mg/ml BSA) was prepared using sterile water, which was prepared and used on the day of the experiment.
Preparation of 1000× drug stock plate: a 1000× compound stock plate was prepared. […] The compound stock plate was sealed with a sealing film and stored in a −20° C. refrigerator for later use.
Compound preparation and dosing: the 1000× drug stock plate was taken and melted at room temperature in the dark. Then 5× drug intermediate plate was prepared using reaction buffer and mixed well. 2 μL was transferred from the 5× drug intermediate plate into a 384-well plate, and negative control well and positive control well (in which 2 μL reaction buffer containing 0.5% DMSO was added) were set. Each point was repeated twice.
Preparation and incubation of reaction mixture: HPK1 protein was diluted to a 2.5× working solution with reaction buffer. 4 μL 2.5×HPK1 protein was added to each well containing test compound and positive control well, and 4 μL of reaction buffer without HPK1 protein was added to the negative control well. The obtained mixture was centrifuged at 1000 rpm for 1 min and then incubated in a 20° C. incubator for 15 min. A 2.5× mixed working solution of MBP protein and ATP was prepared with reaction buffer at concentrations of 0.5 μg/μL and 50 μM, respectively. 4 μL of the mixed working solution of MBP and ATP was added to each well, centrifuged at 1000 rpm for 1 min, and then incubated in a 20° C. incubator for 90 min.
ADP-Glo detection and reading plate: 10 μl ADP-Glo was added to each well of the test plate. The resulting mixture was centrifuged at 1000 rpm for 1 min and incubated in a 20° C. incubator for 60 min. Then 10 μL of the final incubation solution was transferred from the test plate to a new 384-well plate. 10 μL of kinase detection reagent was added to each well, centrifuged at 400 g for 1 min, and incubated in a 20° C. incubator for 60 min Chemiluminescent signals were read by a microplate reader.

| IC50 (HPK1 [1]) | IC50 (HPK1 [2]) | SMILES |
| --- | --- | --- |
| 143 nM | 0.24 nM | CC(C)(O)C(=O)N1CCc2cc(-c3cnc4[nH]cc(C(F)(F)F)c4c3)cc([C@@H]3COCCN3)c2C1 [Compound Z473, (R)-2-hydroxy-2-methyl-1-(8-(morpholin-3-yl)-6-(3-(trifluoromethyl)-1H-pyrrolo[2,3-b]pyridin-5-yl)-3,4-dihydroisoquinolin-2(1H)-yl)propan-1-one] |
| 67 nM | 0.21 nM | CCc1c[nH]c2ncc(-c3cc4c(c([C@@H]5COCCN5)c3)CN(C(=O)C(C)(C)O)CC4)cc12 [Compound Z476, (R)-1-(6-(3-ethyl-1H-pyrrolo[2,3-b]pyridin-5-yl)-8-(morpholin-3-yl)-3,4-dihydroisoquinolin-2(1H)-yl)-2-hydroxy-2-methylpropan-1-one] |
| 150 nM | 0.21 nM | Cc1c[nH]c2ncc(-c3cc4c(c([C@@H]5COCCN5)c3)CN(C(=O)N3CC[C@H](F)C3)CC4)cc12 [Compound Z488, ((S)-3-fluoropyrrolidin-1-yl)(6-(3-methyl-1H-pyrrolo[2,3-b]pyridin-5-yl)-8-((R)-morpholin-3-yl)-3,4-dihydroisoquinolin-2(1H)-yl)methanone] |
| 82.1 nM | 0.21 nM | O=C(N1CCc2cc(-c3cnc4[nH]cc(Cl)c4c3)cc([C@@H]3COCCN3)c2C1)N1C2CCC1COC2 [Compound Z489, (3-oxa-8-azabicyclo[3.2.1]octan-8-yl)(6-(3-chloro-1H-pyrrolo[2,3-b]pyridin-5-yl)-8-((R)-morpholin-3-yl)-3,4-dihydroisoquinolin-2(1H)-yl)methanone] |
| 95.7 nM | 0.18 nM | Cc1c[nH]c2ncc(-c3cc4c(c([C@@H]5COCCN5)c3)CN(C(=O)N3C5CCC3COC5)CC4)cc12 [Compound Z492, (3-oxa-8-azabicyclo[3.2.1]octan-8-yl)(6-(3-methyl-1H-pyrrolo[2,3-b]pyridin-5-yl)-8-((R)-morpholin-3-yl)-3,4-dihydroisoquinolin-2(1H)-yl)methanone] |
| 295 nM | 0.41 nM | Cc1c[nH]c2ncc(-c3cc4c(c([C@@H]5CCCN5)c3)CN(C(=O)c3cc(C5CC5)nn3C)CC4)cc12 [Compound Z493, (S)-(3-cyclopropyl-1-methyl-1H-pyrazol-5-yl)-[6-(3-methyl-1H-pyrrolo[2,3-b]pyridin-5-yl)-8-[pyrrolidin-5-yl]-3,4-dihydroisoquinolin-2(1H)-yl]methanone] |
| 453 nM | 0.81 nM | Cc1c[nH]c2ncc(-c3cc4c(c([C@@H]5CCCN5)c3)CN(C(=O)c3ccn(C5CC5)n3)CC4)cc12 [Compound Z494, (S)-(1-cyclopropyl-1H-pyrazol-3-yl)(6-(3-methyl-1H-pyrrolo[2,3-b]pyridin-5-yl)-8-(pyrrolidin-2-yl)-3,4-dihydroisoquinolin-2(1H)-yl)methanone] |
| 62.7 nM | 0.22 nM | CC(C)(O)C(=O)N1CCc2cc(-c3cnc4[nH]cc(Cl)c4c3)cc([C@@H]3CCCN3)c2C1 [Compound Z496] |
| 186 nM | 0.4 nM | Cc1c[nH]c2ncc(-c3cc4c(c([C@@H]5CCCN5)c3)CN(C(=O)N3CCOC(C(F)(F)F)C3)CC4)cc12 (stereo partly drawn) [Compound Z497, [6-(3-methyl-1H-pyrrolo[2,3-b]pyridin-5-yl)-8-[(S)-pyrrolidin-2-yl]-3,4-dihydro-isoquinolin-2(1H)-yl]-[2-(trifluoromethyl)morpholin-4-yl]methanone] |
| 119 nM | 0.43 nM | Cc1c[nH]c2ncc(-c3cc4c(c([C@@H]5COCCN5)c3)CN(C(=O)C(C)(C)O)CC4)nc12 [Compound Z507, (R)-1-(6-(7-methyl-5H-pyrrolo[2,3-b]pyrazin-2-yl)-8-(morpholin-3-yl)-3,4-dihydroisoquinolin-2(1H)-yl)-2-hydroxy-2-methylpropan-1-one] |
| 148 nM | 0.35 nM | Cc1c[nH]c2ncc(-c3cc4c(c([C@@H]5COCCN5)c3)CN(C(=O)N3C[C@H](C)O[C@@H](C)C3)CC4)cc12 [Compound Z512, ((2S,6S)-2,6-dimethylmorpholine)(6-(3-methyl-1H-pyrrolo[2,3-b]pyridin-5-yl)-8-((R)-morpholin-3-yl)-3,4-dihydroisoquinolin-2-1H-yl)methanone] |
| 130 nM | 0.22 nM | Cc1c[nH]c2ncc(-c3cc4c(c([C@@H]5COCCN5)c3)CN(C(=O)N3C[C@H]5C[C@@H]3CO5)CC4)cc12 [Compound Z518] |
| 51.8 nM | 0.17 nM | CC(C)(O)C(=O)N1CCc2cc(-c3cnc4[nH]cc(C5CC5)c4c3)cc([C@@H]3COCCN3)c2C1 [Compound Z523, (R)-1-(6-(3-cyclopropyl-1H-pyrrolo[2,3-b]pyridin-5-yl)-8-(morpholin-3-yl)-3,4-dihydroisoquinolin-2(1H)-yl)-2-hydroxy-2-methylpropan-1-one] |

The next lines start with the molecule.

| SMILES | IC50 (HPK1 [1]) | IC50 (HPK1 [2]) |
| --- | --- | --- |
| Cc1c[nH]c2ncc(-c3cc4c(c([C@@H]5COCCN5)c3)CCN(C(=O)C3CCOCC3)C4)cc12 [Compound Z377, (R)-(7-(3-methyl-1H-pyrrolo[2,3-b]pyridin-5-yl)-5-(morpholin-3-yl)-3,4-dihydroisoquinolin-2(1H)-yl)(tetrahydro-2H-pyran-4-yl)methanone] | 190 nM | 0.28 nM |
| CCc1c(Cl)[nH]c2ncc(-c3cc4c(c([C@@H]5CCCN5)c3)CN(C(=O)COC)CC4)cc12 [Compound Z411] | 428 nM | 1.12 nM |
| CC(C)c1c[nH]c2ncc(-c3cc4c(c([C@@H]5CCCN5)c3)CN(C(=O)C(C)(C)O)CC4)cc12 [Compound Z416, (S)-2-hydroxy-1-(6-(3-isopropyl-1H-pyrrolo[2,3-b]pyridin-5-yl)-8-(pyrrolidin-2-yl)-3,4-dihydroisoquinolin-2(1H)-yl)-2-methylpropan-1-one] | 63.1 nM | 0.29 nM |
| CC(C)c1c[nH]c2ncc(-c3cc4c(c([C@@H]5COCCN5)c3)CN(C(=O)C(C)(C)O)CC4)cc12 [Compound Z419, (R)-2-hydroxy-1-(6-(3-isopropyl-1H-pyrrolo[2,3-b]pyridin-5-yl)-8-(morpholin-3-yl)-3,4-dihydroisoquinolin-2(1H)-yl)-2-methylpropan-1-one] | 74.2 nM | 0.11 nM |
| CCc1c(Cl)[nH]c2ncc(-c3cc4c(c([C@@H]5COCCN5)c3)CN(C(=O)C(C)(C)O)CC4)cc12 [Compound Z422, (R)-1-(6-(2-chloro-3-ethyl-1H-pyrrolo[2,3-b]pyridin-5-yl)-8-(morpholin-3-yl)-3,4-dihydroisoquinolin-2(1H)-yl)-2-hydroxy-2-methylpropan-1-one] | 349 nM | 0.72 nM |
| CC(C)(O)C(=O)N1CCc2cc(-c3cnc4[nH]cc(F)c4c3)cc([C@@H]3COCCN3)c2C1 [Compound Z445, (R)-1-(6-(3-fluoro-1H-pyrrolo[2,3-b]pyridin-5-yl)-8-(morpholin-3-yl)-3,4-dihydroisoquinolin-2(1H)-yl)-2-hydroxy-2-methylpropan-1-one] | 253 nM | 0.85 nM |
| Cc1c[nH]c2ncc(-c3cc4c(c([C@@H]5COCCN5)c3)CCN(C(=O)[C@H]3CCOC3)C4)cc12 [Compound Z446, (7-(3-methyl-1H-pyrrolo[2,3-b]pyridin-5-yl)-5-((R)-morpholin-3-yl)-3,4-dihydroisoquinolin-2(1H)-yl)((S)-tetrahydrofuran-3-yl)methanone] | 196 nM | 0.83 nM |
| O=C(N1CCc2cc(-c3cnc4[nH]cc(Cl)c4c3)cc([C@@H]3COCCN3)c2C1)N1CC2CCC(C1)O2 [Compound Z447, (8-oxa-3-azabicyclo[3.2.1]octan-3-yl)(6-(3-chloro-1H-pyrrolo[2,3-b]pyridin-5-yl)-8-((R)-morpholin-3-yl)-3,4-dihydroisoquinolin-2(1H)-yl)methanone] | 44.8 nM | 0.18 nM |
| CCc1c[nH]c2ncc(-c3cc4c(c([C@@H]5COCCN5)c3)CN(C(=O)N3CCOCC3)CC4)cc12 [Compound Z448, (R)-(6-(3-ethyl-1H-pyrrolo[2,3-b]pyridin-5-yl)-8-(morpholin-3-yl)-3,4-dihydroisoquinolin-2(1H)-yl)(morpholine)methanone] | 120 nM | 0.29 nM |
| Cc1c[nH]c2ncc(-c3cc4c(c([C@@H]5COCCN5)c3)CN(C(=O)C3(O)CCOCC3)CC4)cc12 [Compound Z450] | 158 nM | 0.22 nM |
| Cc1c[nH]c2ncc(-c3cc4c(c([C@@H]5COCCN5)c3)CN(C(=O)N3CC5CCC(C3)O5)CC4)cc12 [Compound Z451, (8-oxa-3-azabicyclo[3.2.1]octan-3-yl)(6-(3-methyl-1H-pyrrolo[2,3-b]pyridin-5-yl)-8-((R)-morpholin-3-yl)-3,4-dihydroisoquinolin-2(1H)-yl)methanone] | 44.2 nM | 0.11 nM |
| Cc1c[nH]c2ncc(-c3cc4c(c([C@@H]5COCCN5)c3)CN(C(=O)N3CC5CCC3CO5)CC4)cc12 (stereo partly drawn) [Compound Z457, (2-oxa-5-azabicyclo[2.2.2]octan-5-yl)(6-(3-methyl-1H-pyrrolo[2,3-b]pyridin-5-yl)-8-((R)-morpholin-3-yl)-3,4-dihydroisoquinolin-2(1H)-yl)methanone] | 60.9 nM | 0.14 nM |
| Cc1c[nH]c2ncc(-c3cc4c(c([C@@H]5COCCN5)c3)CN(C(=O)[C@H]3CCOC3)CC4)cc12 [Compound Z469, [6-(3-methyl-1H-pyrrolidine[2,3-b]pyridin-5-yl)-8-[(R)-morpholin-3-yl]-3,4-dihydroisoquinolin-2(1H)-yl]-[(S)-tetrahydrofuran-3-yl]methanone] | 125 nM | 0.06 nM |
